Measurements: patent US4727090A, “Process for preparing and therapeutical applications of the 2,4,6-triiodophenol” (Bislak, S.A., priority 1983, dated 1988)
Where two headings read alike, the source gives them in different places.

What was measured:
fat in the blood = test: Fat in the blood in cardiovascular patients (hypocholesterinemic action); format: in vivo; settings: 3rd month, 30 mg/day intramuscular
Protocol: (§1) Hereunder we expose the clinical results obtained after the administration during three months of the 2,4,6-triiodophenol in 200 cardiovascular patients.
(§2) Sick persons were divided in 4 groups; (1) 50 patients with cerebral vascular insufficiency, (2) 50 patients with coronary insufficiency, (3) 50 patients with hepatic insufficiency and (4) 50 patients with peripheral vascular insufficiency of the lower extremities. All these persons received an intramuscular administration, a dosage of 30 mg/day of 2,4,6-triiodophenol, carrying out controls at the first, second and third month of all angiohemodynamic parameters, supposing a total of 600 controls (150 per each group after the three months).

[1] = tested on: granuloma formed around cotton implant; test: Cotton implant granuloma test; format: in vivo, rats; settings: 72 hours
Protocol: (B) To a group of 10 rats of about 200-225 g is implanted at the dorsal zone, subcutaneously, balled cotton (about 9 mg) impregnated and afterwards dried with a solution of medicamentous substance and which amount is known.
We use as reference Dexamethasone and controls without medicament.
After 72 hours, once the animal is sacrificed, the granuloma formed around the implant is extracted and weighed, after drying at 100° C.
The antiinflammatory reduces the weight of the granuloma.

[2] = Tolerability after three months administration in 200 cardiovascular patients; format: in vivo
Protocol: as §1, §2

Solubility = format: physicochemical
pressure = test: Systemic arterial and portal pressure in cardiovascular patients (hypotensor action); format: in vivo; settings: 30 mg/day intramuscular
Text: (§3) The technology used to show the hemodynamic changes was of the non-invasivetype, as in this way experiments can be repeated and are completely innoxious for the patient. Of all the non-invasive methods of diagnosis we selected the most reliable of actual conditions, which is the method of ultrasounds (echo and Doppler's effects). The bidimensional echocardiography in real time, combined with pulsatile Doppler and the bidimensional vascular echography combined with pulsatile Doppler hemodynamic, are actually the two most reliable non-invasive techniques for the study of the anatomic changes and macroscopic hemodynamics with regard to the cardiovascular apparatus. That's why we used for the study of the clinical effects of the 2,4,6-triiodophenol an echo-Doppler trade mark ATL (Mark V), being the transmission frequency of 3 MHz, as well as a continuous Doppler trade mark SONICAID of 4 and 8 MHz.
(§4) Patients were divided in four statistically acceptable groups (50 in each group), comparing the results obtained with this medicament before, during and after the treatment.
(§5) Methodologically there are practiced echographical cuts in real time of the heart, big vases, supra-aortic trunks, abdominal aorta, portal and caval systems and iliac and femoral arteries, obtaining fluxmetric samples Doppler in all the mentioned cardiac cavities and blood vessels to study the sense of the flow, outflow (stream) or volume of flow and the hemodynamic features of the sanguineous flow.
as §1, §2

[3] = tested on: acetic acid induced pullings; test: Writhing syndrome test (acetic acid); format: in vivo, mice; settings: 10 mg/kg oral; for inhibition at 10 mg/kg: Mus musculus, po, read-out: % INHIB. (pullings)
Protocol: Irritant substance: acetic acid at 0.5% injected via intraperitoneal.
Foundation of the method consists in provoking a dolorous syndrome by pulling and torsion of the stomach and the hind legs of the animals.
These pullings or stretchings are calculated during a certain time, using it as the measure of the provoked ache.
Mice of about 22 g by weight were used, animals were left under abstinence during 24 hours before carrying out the test.
Mice were previously selected as to each individual response to the dolorous stimulus provoked by an intraperitoneal injection of 0.2 ml of an acetic acid aqueous solution at the 0.5%. Valid animals for realizing the test are those which respond within a margin of 15-35 pullings in about 5 to 15 minutes after the injection. The remaining animals are not useful.
Medication is realized via oral with the help of an esophageal cannula.
White lot: Administration of 0.1 ml of CMC 1% for each 10 g of corporal weight.
2,4,6-triiodophenol lot: Administration of 10 mg/kg of the product, suspended in CMC of 1%.
Aspirin-Lysin lot (Solusprin): Administration of 500 mg/kg aspirin, dissolved at 1%.
After medication, one has to wait 20 minutes for injecting 0.2 ml acetic acid of 0.5% via intraperitoneal, calculating the number of pullings during 5 minutes. […]
The test was carried out in 9 mice in each lot.

[4] = Effects by parenteral administration compared with classical antirheumatics; format: in vivo; settings: 1 mg/kg
vascular wall = test: Vascular wall distensibility by echo-Doppler in cardiovascular patients (antiatherosclerotic action); format: in vivo; settings: 30 mg/day intramuscular
Text: as §3, §4, §5, §1, §2

velocity of blood flow = test: Speed of flow by echo-Doppler in cardiovascular patients (fluidifying + hemodynamizing action); format: in vivo; settings: 30 mg/day intramuscular
Text: as §3, §4, §5, §1, §2

## Oc1c(I)cc(I)cc1I [2,4,6-triiodophenol]
Fat in the blood
  Cholesterol, variation: -15%
  Triglycerides, variation: -12%
[1]; 100 micrograms per implant
  % Reduction of the granuloma (Average): 19%
[1]; 200 micrograms per implant
  % Reduction of the granuloma (Average): 28%
[1]; 400 micrograms per implant
  % Reduction of the granuloma (Average): 44%
[2]; iodine concentration of the product
  Thyroid function: does not alter the thyroid function
[2]; three months administration, 30 mg/day intramuscular
  Toxic effect or secondary effects of clinical importance: does not produce any toxic effect or secondary effects of clinical importance in none of the patients
Solubility; alkali solutions
  Solubility in alkali solutions: soluble
Solubility; chloroform and dichloromethane
  Solubility in chloroform and dichloromethane: very soluble
Solubility; ethylic and propylic alcohols, acetone and sulfuric ether
  Solubility in organic dissolvents: somewhat soluble
Solubility; water
  Solubility in water: not very soluble
pressure; 1st month
  Portal pressure, variation (Δ %): -8%
  Systemic arterial pressure, variation (Δ %): -3%
pressure; 2nd month
  Portal pressure, variation (Δ %): -11%
  Systemic arterial pressure, variation (Δ %): -5%
pressure; 3rd month
  Portal pressure, variation (Δ %): -13%
  Systemic arterial pressure, variation (Δ %): -6%
[3]; 20'
  Total No. pullings: 14
  inhibition at 10 mg/kg: 88.4%
[3]; 30'
  Total No. pullings: 9
  inhibition at 10 mg/kg: 83.9%
[3]; 100'
  Total No. pullings: 9
  inhibition at 10 mg/kg: 86.1%
[4]
  Effects compared with aspirin and indomethacin at therapeutic dosages: comparable and even higher
Vascular wall; 2nd month
  Distensibility, abdominal aorta, variation (Δ %): +29%
  Distensibility, caval iliac artery, variation (Δ %): +28%
  Distensibility, portal carotid aorta, variation (Δ %): +27%
  Distensibility, portal vein, variation (Δ %): +29,5%
  Distensibility, post caval system, variation (Δ %): +12%
  Distensibility, thoracic aorta, variation (Δ %): +11%
Vascular wall; 3rd month
  Distensibility, abdominal aorta, variation (Δ %): +31%
  Distensibility, average value (arteries), variation (Δ %): +26%
  Distensibility, average value (veins), variation (Δ %): +24%
  Distensibility, caval iliac artery, variation (Δ %): +29,5%
  Distensibility, portal carotid aorta, variation (Δ %): +30%
  Distensibility, portal vein, variation (Δ %): +32%
  Distensibility, post caval system, variation (Δ %): +15%
  Distensibility, thoracic aorta, variation (Δ %): +14%
Vascular wall; conclusions, three months
  Improvement of the parietal dynamic of all arteries: 26%
  Improvement of the parietal dynamic of veins: 24%
Vascular wall; first month
  Distensibility, abdominal aorta, variation (Δ %): +18%
  Distensibility, caval iliac artery, variation (Δ %): +12%
  Distensibility, portal carotid aorta, variation (Δ %): +17%
  Distensibility, portal vein, variation (Δ %): +15%
  Distensibility, post caval system, variation (Δ %): +7%
  Distensibility, thoracic aorta, variation (Δ %): +7%
Velocity of blood flow; 1st month
  Speed of flow, abdominal aorta, variation (Δ %): +3%
  Speed of flow, caval iliac artery, variation (Δ %): +7%
  Speed of flow, portal carotid aorta, variation (Δ %): +11%
  Speed of flow, portal system, variation (Δ %): +16%
  Speed of flow, postcaval system, variation (Δ %): +8%
  Speed of flow, thoracic aorta, variation (Δ %): +2%
Velocity of blood flow; 2nd month
  Speed of flow, abdominal aorta, variation (Δ %): +5%
  Speed of flow, caval iliac artery, variation (Δ %): +11%
  Speed of flow, portal carotid aorta, variation (Δ %): +14%
  Speed of flow, portal system, variation (Δ %): +21%
  Speed of flow, postcaval system, variation (Δ %): +12%
  Speed of flow, thoracic aorta, variation (Δ %): +3%
Velocity of blood flow; 3rd month
  Speed of flow, abdominal aorta, variation (Δ %): +7%
  Speed of flow, average value (arteries), variation (Δ %): +11%
  Speed of flow, average value (veins), variation (Δ %): +17%
  Speed of flow, caval iliac artery, variation (Δ %): +14%
  Speed of flow, portal carotid aorta, variation (Δ %): +19%
  Speed of flow, portal system, variation (Δ %): +29%
  Speed of flow, postcaval system, variation (Δ %): +15%
  Speed of flow, thoracic aorta, variation (Δ %): +5%
Velocity of blood flow; conclusions, three months
  Increase of speed of the sanguineous flow in the arteries: 11%
  Increase of speed of the sanguineous flow in the veins: 17%
